ChEMBL document CHEMBL2146378, “Curcumin is an inhibitor of calcium/calmodulin dependent protein kinase II” (Bioorg Med Chem, 2012)

Tests used:
[1] = molecular target: T1, Calcium/calmodulin-dependent protein kinase type II subunit alpha (Homo sapiens, UniProt Q9UQM7); test: Inhibition of autophosphorylated alphaCaMK2 using GST-NR2A as substrate incubated for 1 min prior to substrate addition measured after 1 min in presence of EGTA
[2] = Inhibition of Albino Wistar rat CaMK2 autophosphorylation at Thr286 in brain cytosolic fraction using [gamma32P]ATP incubated for 30 secs prior to ATP addition measured after 30 secs; assay type: tissue-based
[3] = Inhibition of Albino Wistar rat CaMK2 in brain cytosolic fraction using GST-NR2A as substrate incubated for 1 min prior to substrate addition measured after 1 min in presence of EGTA; assay type: tissue-based
[4] = Inhibition of Albino Wistar rat CaMK2 in postsynaptic density fraction using GST-NR2A as substrate incubated for 1 min prior to substrate addition measured after 1 min
[5] = Inhibition of Albino Wistar rat CaMK2 autophosphorylation at Thr286 in postsynaptic density fraction using [gamma32P]ATP incubated for 30 secs prior to ATP addition measured after 30 secs
[6] = Inhibition of Albino Wistar rat CaMK2 in brain cytosolic fraction using GST-NR2A as substrate incubated for 1 min prior to substrate addition measured after 1 min; assay type: tissue-based
[7] = molecular target: T1, Calcium/calmodulin-dependent protein kinase type II subunit alpha; test: Inhibition of alphaCaMK2 using GST-NR2A as substrate incubated for 1 min prior to substrate addition measured after 1 min
[8] = Inhibition of Albino Wistar rat CaMK2 in postsynaptic density fraction using GST-NR2A as substrate incubated for 1 min prior to substrate addition measured after 1 min in presence of EGTA
[9] = molecular target: T1, Calcium/calmodulin-dependent protein kinase type II subunit alpha; test: Inhibition of autophosphorylated alphaCaMK2 using GST-NR2A as substrate incubated for 1 min prior to substrate addition measured after 1 min
[10] = molecular target: T1, Calcium/calmodulin-dependent protein kinase type II subunit alpha; test: Inhibition of alphaCaMK2 autophosphorylation at Thr286 using [gamma32P]ATP incubated for 30 secs prior to ATP addition measured after 30 secs
[11] = molecular target: Calcium/calmodulin-dependent protein kinase type II subunit alpha (Homo sapiens, UniProt Q9UQM7, T286D); test: Inhibition of alphaCaMK2 T286D mutant using GST-NR2A as substrate incubated for 1 min prior to substrate addition measured after 1 min in presence of EGTA
Sequence of Calcium/calmodulin-dependent protein kinase type II subunit alpha (Homo sapiens, UniProt Q9UQM7, T286D) (Q9UQM7 whole entry T286D): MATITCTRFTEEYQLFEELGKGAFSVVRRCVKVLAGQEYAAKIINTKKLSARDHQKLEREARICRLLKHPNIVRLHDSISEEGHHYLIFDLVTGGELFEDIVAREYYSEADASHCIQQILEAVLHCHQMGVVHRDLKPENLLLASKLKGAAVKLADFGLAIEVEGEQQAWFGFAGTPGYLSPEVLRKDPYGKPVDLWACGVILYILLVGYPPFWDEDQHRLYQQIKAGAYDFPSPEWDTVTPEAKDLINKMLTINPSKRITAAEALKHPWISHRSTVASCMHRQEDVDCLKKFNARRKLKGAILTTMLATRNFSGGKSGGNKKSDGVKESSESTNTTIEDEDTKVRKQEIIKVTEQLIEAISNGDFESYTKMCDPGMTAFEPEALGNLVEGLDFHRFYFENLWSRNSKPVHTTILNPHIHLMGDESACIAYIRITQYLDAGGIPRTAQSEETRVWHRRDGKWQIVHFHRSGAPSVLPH

T1 sequence (Q9UQM7 whole entry): as the sequence (Q9UQM7 whole entry T286D) above, with D286T counted along it

| Compound | IC50 [1] | IC50 [2] | IC50 [3] | IC50 [4] | IC50 [5] | IC50 [6] | IC50 [7] | IC50 [8] | IC50 [9] | IC50 [10] | IC50 [11] |
| --- | --- | --- | --- | --- | --- | --- | --- | --- | --- | --- | --- |
| COc1cc(/C=C/c2cc(/C=C/c3ccc(O)c(OC)c3)on2)ccc1O | 0.68 µM | 17.1 µM | 13.7 µM | 22.9 µM | 22.8 µM | 28.9 µM | 11.4 µM | 18.9 µM | 24.4 µM | 18 µM |  |
| COc1cc(/C=C/c2cc(/C=C/c3ccc(O)c(OC)c3)n(-c3ccccc3)n2)ccc1O | 54 µM | 80 µM | 96 µM | 103 µM | 68 µM | 94 µM | 37 µM | 62 µM | 79 µM | 111 µM |  |
| O=C(/C=C/c1ccc(O)cc1)CC(=O)/C=C/c1ccc(O)cc1 [BISDEMETHOXYCURCUMIN] |  |  |  |  |  |  | 37 µM |  |  |  |  |
| COc1cc(/C=C/C(O)=C/C(=O)/C=C/c2ccc(O)cc2)ccc1O [DEMETHOXYCURCUMIN] |  |  |  |  |  |  | 24 µM |  |  |  |  |
| COc1cc(/C=C/C(=O)CC(=O)/C=C/c2ccc(O)c(OC)c2)ccc1O (stereo in doubt; 1) [CURCUMIN] |  |  |  |  |  |  | 13 µM |  |  |  |  |
| COc1cc(/C=C/c2cc(/C=C/c3ccc(O)c(OC)c3)[nH]n2)ccc1O [CURCUMIN PYRAZOLE] | 0.29 µM | 16.3 µM | 0.44 µM | 3.6 µM | 7.58 µM | 4.4 µM | 1.49 µM | 0.34 µM | 6.3 µM | 6.5 µM |  |
| COc1cc(/C=C/C(=O)CC(=O)/C=C/c2ccc(O)c(OC)c2)ccc1O (stereo in doubt) [CURCUMIN] | 34 µM | 143 µM | 64 µM | 80 µM | 69 µM | 112 µM | 21 µM | 33 µM | 45 µM | 33 µM | 37 µM |
